The values below come from publication PMC6013247, “Preclinical characterization of INCB053914, a novel pan-PIM kinase inhibitor, alone and in combination with anticancer agents, in models of hematologic malignancies” (PLoS ONE, 2018).

Assay [1] has as its system PIM isozyme expression in Pfeiffer DLBCL cells. Kind of assay: PIM isozyme expression in Pfeiffer DLBCL cells. The format is cell-based.
The test system of another assay is Pfeiffer DLBCL cells. Kind of assay: In vitro proliferation of Pfeiffer DLBCL cells, single agents and combination. The format is cell-based. The method, then: Synergistic effects of INCB053914 in combination with INCB050465, cytarabine, or itacitinib, were assessed based on the Bliss independence model. In this model, the expected additive effect, with the assumption that concentration dependent effects of 2 drugs (A and B) are independent, is given by the equation EIND = EA + EB – EA •EB, where 0 ≤ EIND ≤ 1; EA and EB are the magnitudes of effects of A and B alone at given concentrations.
The interaction between effects of A and B can be described by the equation Combination Index = EIND/ EOBS, where EOBS is the observed combined effect of A + B expressed as a probability (0 ≤ EOBS ≤ 1). If the point estimate of Combination Index and its upper 97.5% confidence limit are <1 then the combined effect is synergistic; if the 2-sided 95% confidence intervals (CI) encompass 1 then the combined effect is additive (ie, independent); if the point estimate of Combination Index and the lower 2.5% confidence limit are >1 then the combined effect of A + B are antagonistic.

The subject of another assay is INA-6 cells. As to the kind of experiment: STAT3(Y705) and PIM kinase substrate phosphorylation in INA-6 cells in culture. The format is cell-based. To be noted: INA-6 cells treated for 24 hours in culture. The protocol:
Fig S1. Effects of INCB053914 on STAT3(Y705) and PIM kinase substrate phosphorylation in INA-6 cells treated for 24 hours in culture.

Assay [2] has as its system human KG-1 AML xenografts. Kind of assay: Tumor growth in KG-1 (AML) xenograft, combination with cytarabine. The format is in vivo, mouse. To be noted: KG-1 (AML) tumors.
Procedure: Female immune compromised (severe combined immunodeficiency [SCID]) mice (5–9 weeks of age; Charles River Laboratories, Wilmington, Massachusetts) were inoculated with MOLM-16, KG-1, or KMS-12-BM cells. A cell suspension in Dulbecco’s phosphate-buffered saline (DPBS) (1 × 10^8 cells/ml) was mixed 1:1 (v/v) with matrigel, and 200 μl was injected subcutaneously into the flank of each mouse. […] The treatment of tumor-bearing mice started 7 to 24 days after tumor inoculation for efficacy studies and approximately 14 to 27 days after tumor inoculation for pharmacodynamic studies.
Synergistic effects of INCB053914 in combination with INCB050465, cytarabine, or itacitinib, were assessed based on the Bliss independence model [56, 57]. In this model, the expected additive effect, with the assumption that concentration dependent effects of 2 drugs (A and B) are independent, is given by the equation EIND = EA + EB – EA •EB, where 0 ≤ EIND ≤ 1; EA and EB are the magnitudes of effects of A and B alone at given concentrations.
The interaction between effects of A and B can be described by the equation Combination Index = EIND/ EOBS, where EOBS is the observed combined effect of A + B expressed as a probability (0 ≤ EOBS ≤ 1). […]
Assay [3] deals with pBAD, pSTAT3 and MYC in INA-6 (MM) tumors. Kind of assay: pBAD, pSTAT3 and MYC levels in INA-6 (MM) tumors. The format is in vivo, mouse. To be noted: INA-6 (MM) tumors in mice. The method, then: The PI3Kδ inhibitor INCB050465 (10 mg/kg once a day orally) was evaluated in combination with INCB053914 (30 mg/kg once a day orally) in mice bearing Pfeiffer (DLBCL) xenografts, a model sensitive to PI3Kδ inhibition (eight mice/group). Cytarabine was administered via intraperitoneal injection at a standard dose of 20 mg/kg twice a week, in combination with oral INCB053914 at a submaximally efficacious dose of 20 mg/kg twice a day for 12 days in mice bearing human KG-1 AML xenografts, a cytarabine-sensitive model (eight mice/group). The oral JAK1-selective inhibitor itacitinib (60 mg/kg twice a day orally) was assessed in combination with INCB053914 (100 mg/kg twice a day orally) after 8 days of administration to SCID mice bearing INA-6 (MM) xenografts (eight mice/group), a model sensitive to JAK inhibition.

Regarding `CCOc1c([C@H](C)n2nc(C)c3c(N)ncnc32)cc(Cl)c(F)c1[C@@H]1CNC(=O)C1` [INCB050465], in assay [1], the “expression of all three PIM isozymes relative to baseline” value is given as “concentration-dependent increases” and the “increase in PIM2 expression relative to baseline” value is ~ 2.5 fold. In the assay with Pfeiffer DLBCL cells, the “proliferation of Pfeiffer cells, single agent” value is listed as “inhibited”.

As for `N#CC[C@H](C1CCCC1)n1cc(-c2ncnc3[nH]ccc23)cn1` [ruxolitinib], the “PIM kinase substrate phosphorylation” value in the assay on INA-6 cells is reported as “unaffected”.

Turning to `Nc1ccn([C@@H]2O[C@H](CO)[C@@H](O)[C@@H]2O)c(=O)n1` [cytarabine, Cytarabine, reference compound], in assay [2], the “tumor growth, single agent” value was “inhibited”.

Turning to `N#CCC1(n2cc(-c3ncnc4[nH]ccc34)cn2)CN(C2CCN(C(=O)c3ccnc(C(F)(F)F)c3F)CC2)C1` [itacitinib, reference compound], in assay [3], the MYC levels entry is on record as “decreased MYC levels” and the “level of pSTAT3” value was “decrease”. The “PIM kinase substrate phosphorylation” value in the assay on INA-6 cells is given as “unaffected”.
